Target: 3-phosphoinositide-dependent protein kinase 1 (PDPK1) (Homo sapiens) (UniProt O15530)
Test: Inhibition of PDK1

- IC50: > 10 µM
Structure (SMILES): COc1cc(Nc2c(C#N)cnc3cc(/C=C/CCN4CCN(C)CC4)c(OC)cc23)c(Cl)cc1Cl [(E)-4-(2,4-dichloro-5-methoxyphenylamino)-6-methoxy-7-(4-(4-methylpiperazin-1-yl)but-1-enyl)quinoline-3-carbonitrile]
